8 cell lines from the supplement of paper PMC10307832 can be followed below.

Assay in all cases: relative viability (nuclei count vs DMSO), 5 days (fraction); higher = more cells survive
Compound in test [1]: CN[C@@H]1C[C@H]2O[C@@](C)([C@@H]1OC)n1c3ccccc3c3c4c(c5c6ccccc6n2c5c31)C(=O)NC4 [Staurosporine] + C[C@]1(O)C[C@@H](c2nc(-c3ccc4ccc(-c5ccccc5)nc4c3)c3c(N)nccn32)C1 [Linsitinib] (partner 1 µM)
The method in brief: (§1)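 Medians of duplicate plates are given as relative viability. That measure is the nuclei count in treated wells divided by the count in vehicle wells. Counts were taken on 4× images of lung cancer cell lines in 1536-well plates, 5 days after pin-tool dosing the day after seeding with one drug alone or a fixed anchor-drug dose plus five library-drug doses (not always all listed) in √10 steps.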

Compound in test [2]: O=c1[nH]cc(F)c(=O)[nH]1 [5-Fluorouracil] + CCNC(=O)c1noc(-c2cc(C(C)C)c(O)cc2O)c1-c1ccc(CN2CCOCC2)cc1 [Luminespib] (partner 0.01 µM)
The method in brief:
as §1

Compound in the test “5-Fluorouracil + OSI-027”: O=c1[nH]cc(F)c(=O)[nH]1 [5-Fluorouracil] + COc1cccc2cc(-c3nc([C@H]4CC[C@H](C(=O)O)CC4)n4ncnc(N)c34)[nH]c12 [OSI-027] (partner 0.5 µM)
The method in brief:
as §1

Compound in test [3]: O=c1[nH]cc(F)c(=O)[nH]1 [5-Fluorouracil] + Nc1nc2[nH]cc(CCc3ccc(C(=O)N[C@@H](CCC(=O)O)C(=O)O)cc3)c2c(=O)[nH]1 [Pemetrexed] (partner 0.2 µM)
The method, boiled down: as §1

Regarding NCI-H1651, the relative viability in test [1] (first compound 0.005 µM) was 0.827; in test [1] (first compound 0.01581 µM), 0.587; in test [1] (first compound 0.05 µM), 0.331; in test [1] (first compound 0.1581 µM), 0.122; in test [1] (first compound 0.5 µM) it was 0.0924; in test [2] (first compound 0.02 µM) it was 1.02. For the same cell line, the relative viability in test [2] (first compound 0.2 µM) was found to be 0.764; in test [2] (first compound 0.6325 µM), 0.588; in test [2] (first compound 2 µM), 0.466; in the test with 5-Fluorouracil + OSI-027 (first compound 0.02 µM), 0.832; in the test with 5-Fluorouracil + OSI-027 (first compound 0.2 µM) it was 0.628; with 5-Fluorouracil + OSI-027 (first compound 0.6325 µM), 0.507. The relative viability with 5-Fluorouracil + OSI-027 (first compound 2 µM) worked out at 0.475; in test [3] (first compound 0.02 µM), 0.502; in test [3] (first compound 0.2 µM), 0.457; in test [3] (first compound 0.6325 µM), 0.3; in test [3] (first compound 2 µM), 0.305.

For NCI-H1666, the relative viability in test [1] (first compound 0.005 µM) amounted to 0.475; in test [1] (first compound 0.01581 µM), 0.42; in test [1] (first compound 0.05 µM) it was 0.322; in test [1] (first compound 0.1581 µM) it was 0.238; in test [1] (first compound 0.5 µM) it was 0.221; in test [2] (first compound 0.02 µM) it was 0.992. The relative viability in test [2] (first compound 0.2 µM) is 0.639; in test [2] (first compound 0.6325 µM), 0.419; in test [2] (first compound 2 µM) it was 0.44; with 5-Fluorouracil + OSI-027 (first compound 0.02 µM), 0.869; with 5-Fluorouracil + OSI-027 (first compound 0.2 µM), 0.551; in the test with 5-Fluorouracil + OSI-027 (first compound 0.6325 µM), 0.488. Further, the relative viability in the test with 5-Fluorouracil + OSI-027 (first compound 2 µM) was 0.508; in test [3] (first compound 0.02 µM) it was 0.922; in test [3] (first compound 0.2 µM) it was 0.763; in test [3] (first compound 0.6325 µM) it was 0.61; in test [3] (first compound 2 µM), 0.548.

Take NCI-H1734: the relative viability in test [1] (first compound 0.005 µM) was 0.849; in test [1] (first compound 0.01581 µM), 0.473; in test [1] (first compound 0.05 µM) it was 0.294; in test [1] (first compound 0.1581 µM), 0.228; in test [1] (first compound 0.5 µM) it was 0.164; in test [2] (first compound 0.02 µM), 0.173. For the same cell line, the relative viability is 0.193 in test [2] (first compound 0.2 µM); 0.198 in test [2] (first compound 0.6325 µM); 0.189 in test [2] (first compound 2 µM); 0.58 with 5-Fluorouracil + OSI-027 (first compound 0.02 µM); 0.655 in the test with 5-Fluorouracil + OSI-027 (first compound 0.2 µM); 0.513 in the test with 5-Fluorouracil + OSI-027 (first compound 0.6325 µM). The relative viability was 0.398 with 5-Fluorouracil + OSI-027 (first compound 2 µM); 0.419 in test [3] (first compound 0.02 µM); 0.412 in test [3] (first compound 0.2 µM); 0.401 in test [3] (first compound 0.6325 µM); 0.45 in test [3] (first compound 2 µM).

In the case of NCI-H1755, the relative viability came out at 0.856 in test [1] (first compound 0.005 µM); 0.595 in test [1] (first compound 0.01581 µM); 0.283 in test [1] (first compound 0.05 µM); 0.18 in test [1] (first compound 0.1581 µM); 0.171 in test [1] (first compound 0.5 µM); 0.57 in test [2] (first compound 0.02 µM). The relative viability in test [2] (first compound 0.2 µM) worked out at 0.346; in test [2] (first compound 0.6325 µM) it was 0.331; in test [2] (first compound 2 µM) it was 0.219; with 5-Fluorouracil + OSI-027 (first compound 0.02 µM), 0.703; with 5-Fluorouracil + OSI-027 (first compound 0.2 µM), 0.702; in the test with 5-Fluorouracil + OSI-027 (first compound 0.6325 µM), 0.389. In addition, the relative viability with 5-Fluorouracil + OSI-027 (first compound 2 µM) was determined as 0.264; in test [3] (first compound 0.02 µM) it was 0.509; in test [3] (first compound 0.2 µM) it was 0.367; in test [3] (first compound 0.6325 µM), 0.32; in test [3] (first compound 2 µM), 0.295.

On to NCI-H1792, for which the relative viability was determined as 0.488 in test [1] (first compound 0.005 µM); 0.287 in test [1] (first compound 0.01581 µM); 0.105 in test [1] (first compound 0.05 µM); 0.114 in test [1] (first compound 0.1581 µM); 0.0997 in test [1] (first compound 0.5 µM); 0.616 in test [2] (first compound 0.02 µM). Besides, the relative viability in test [2] (first compound 0.2 µM) turned out to be 0.439; in test [2] (first compound 0.6325 µM), 0.262; in test [2] (first compound 2 µM) it was 0.182; with 5-Fluorouracil + OSI-027 (first compound 0.02 µM), 0.838; with 5-Fluorouracil + OSI-027 (first compound 0.2 µM), 0.602; with 5-Fluorouracil + OSI-027 (first compound 0.6325 µM), 0.317. Besides, the relative viability worked out at 0.222 with 5-Fluorouracil + OSI-027 (first compound 2 µM); 0.948 in test [3] (first compound 0.02 µM); 0.569 in test [3] (first compound 0.2 µM); 0.215 in test [3] (first compound 0.6325 µM); 0.191 in test [3] (first compound 2 µM).

Consider NCI-H1793, for which the relative viability in test [1] (first compound 0.005 µM) worked out at 0.879; in test [1] (first compound 0.01581 µM), 0.558; in test [1] (first compound 0.05 µM), 0.582; in test [1] (first compound 0.1581 µM), 0.465; in test [1] (first compound 0.5 µM) it was 0.209; in test [2] (first compound 0.02 µM) it was 0.205. For the same cell line, the relative viability in test [2] (first compound 0.2 µM) came to 0.183; in test [2] (first compound 0.6325 µM) it was 0.203; in test [2] (first compound 2 µM), 0.176; with 5-Fluorouracil + OSI-027 (first compound 0.02 µM) it was 0.283; with 5-Fluorouracil + OSI-027 (first compound 0.2 µM), 0.369; with 5-Fluorouracil + OSI-027 (first compound 0.6325 µM), 0.303. Also, the relative viability was found to be 0.207 with 5-Fluorouracil + OSI-027 (first compound 2 µM); 0.944 in test [3] (first compound 0.02 µM); 0.942 in test [3] (first compound 0.2 µM); 0.695 in test [3] (first compound 0.6325 µM); 0.503 in test [3] (first compound 2 µM).

Regarding NCI-H1915, the relative viability in test [1] (first compound 0.005 µM) turned out to be 1.11; in test [1] (first compound 0.05 µM), 0.61; in test [1] (first compound 0.1581 µM), 0.486; in test [1] (first compound 0.5 µM), 0.342; in test [2] (first compound 0.02 µM), 0.658; in test [2] (first compound 0.2 µM), 0.855. For the same cell line, the relative viability in test [2] (first compound 0.6325 µM) stood at 0.699; in test [2] (first compound 2 µM) it was 0.597; with 5-Fluorouracil + OSI-027 (first compound 0.02 µM), 0.561; with 5-Fluorouracil + OSI-027 (first compound 0.2 µM) it was 0.616; with 5-Fluorouracil + OSI-027 (first compound 0.6325 µM), 0.591; with 5-Fluorouracil + OSI-027 (first compound 2 µM), 0.525. Also, the relative viability in test [3] (first compound 0.02 µM) amounted to 0.395; in test [3] (first compound 0.2 µM) it was 0.542; in test [3] (first compound 0.6325 µM) it was 0.421; in test [3] (first compound 2 µM), 0.419.

As to NCI-H1944, the relative viability in test [1] (first compound 0.005 µM) was determined as 1.39; in test [1] (first compound 0.05 µM), 0.696; in test [1] (first compound 0.1581 µM), 0.472; in test [1] (first compound 0.5 µM), 0.367; in test [2] (first compound 0.02 µM) it was 0.73; in test [2] (first compound 0.2 µM), 0.625. Further, the relative viability in test [2] (first compound 0.6325 µM) came to 0.3; in test [2] (first compound 2 µM), 0.185; with 5-Fluorouracil + OSI-027 (first compound 0.02 µM), 0.48; with 5-Fluorouracil + OSI-027 (first compound 0.2 µM), 0.423; with 5-Fluorouracil + OSI-027 (first compound 0.6325 µM) it was 0.296; in the test with 5-Fluorouracil + OSI-027 (first compound 2 µM), 0.188. Also, the relative viability in test [3] (first compound 0.02 µM) came to 0.523; in test [3] (first compound 0.2 µM), 0.527; in test [3] (first compound 0.6325 µM), 0.249; in test [3] (first compound 2 µM), 0.179.
